Values quoted from earlier work, collected in US20200289412A1, “BIOENHANCED SPIRULINA LOZENGE FORMULATION” (priority 2019, published 2020).

Experiments:
[1] = tested on: human immunodeficiency virus-1 virus (HIV-1)
tumor cell = conditions: time-dependent; not directly killing cancer cells

| Substance | in vitro replication (Herpes simplex type I) | in vitro replication (influenza A virus) | in vitro replication (mumps virus) | in vitro replication [1] | in vitro replication (measles virus) | in vitro replication (human cytomegalovirus) | tumor cell growth (tumor cell) |
| --- | --- | --- | --- | --- | --- | --- | --- |
| calcium spirulan [Ca-Sp] | inhibits the in vitro replication | inhibits the in vitro replication | inhibits the in vitro replication | inhibits the in vitro replication | inhibits the in vitro replication | inhibits the in vitro replication |  |
| Spirulina polysaccharide [PSP] |  |  |  |  |  |  | inhibiting tumor cell growth |
